Assay results reported in patent publication US20220218800A1, “BETA-LACTAMASE COMPOSITIONS FOR TREATMENT OF GRAFT VERSUS HOST DISEASE” (Synthetic Biologics, Inc., priority 2019, published 2022).
Like-named read-outs stand apart in the source and are kept apart here.

Assays:
Enterococcus [1] = assay: 16S sequencing of stool at day 21 post-transplantation: Enterococcus monodomination (SYN-004); assay type: in vivo, 129S1 mice
Method: This experiment was conducted to assess the effect of SYN-004 administration on modulating and/or reducing Enterococcus monodomination. The experiment was also designed to assess whether SYN-004 administration could prevent the decrease of microbiome diversity in lethally irradiated mice having undergone a bone marrow transplantation.
129S1 mice were lethally irradiated and then transplanted with bone marrow cells (B6 donor bone marrow) at 5M and defined doses of splenic T lymphocytes from C57BL/6 mice at 2M. The mice were divided in three cohorts: (1) a cohort that received administration of saline; (2) a cohort that received administration of piperacillin/tazobactam; and (3) a cohort that received administration of piperacillin/tazobactam (Zosyn, abbreviated as ZO) and SYN-004 (P3A; abbreviated as Blact).
Stool samples were collected at day 21 post-transplantation and 16S sequencing analysis was performed.

[2] = tested on: Firmicutes bacterial phylum; assay: 16S sequencing of mouse stool: Firmicutes level, piperacillin/tazobactam with or without P3A; assay type: in vivo, mice; details: FIG. 2
Method: (§1) Mice received a subcutaneous administration of 125 mg/kg piperacillin/tazobactam twice per day for two days. […] A control cohort of mice received neither piperacillin/tazobactam nor P3A via oral gavage. Another control cohort of mice received P3A only.

total bacteria = assay: 16S sequencing of mouse stool: total bacteria copies per gram of stool; assay type: in vivo, mice; details: FIG. 3
Method: as §1
16S sequencing analysis was also performed to evaluate the total bacteria copies present per gram of mouse stool.

[3] = Piperacillin levels in mouse stool after s.c. piperacillin/tazobactam with or without oral P3A; assay type: in vivo, mice; details: piperacillin/tazobactam 500 mg/kg s.c. twice per day for two days + P3A liquid formulation 10 mg/kg oral gavage twice per day for two days; FIG. 1
Method: Mice received a subcutaneous administration of 500 mg/kg piperacillin/tazobactam twice per day for two days. […] A control cohort of mice received neither piperacillin/tazobactam nor P3A via oral gavage.
After 2 days, mouse stool was evaluated for presence of piperacillin.

129S1 mice [4] = assay: Survival study of antibiotic-exacerbated GVHD after bone marrow transplantation (P3A); assay type: in vivo; details: BM+T cells; piperacillin/tazobactam 100 mg/kg s.c. + P3A 20 mg/kg oral gavage three times per week from day 10; endpoint 30 days post-BMT; FIG. 4
Method: This experiment was conducted to assess the effect of SYN-004 administration on protecting and/or reducing GVHD severity associated with bone marrow transplantation.
129S1 mice were lethally irradiated and then transplanted with bone marrow cells (B6 donor bone marrow) at 5M and defined doses of splenic T lymphocytes from C57BL/6 mice at 2M. Both of these mice share the MHC-type H2b and thus represent a clinically relevant MHC-matched transplantation model.

Enterococcus [5] = assay: 16S sequencing of mouse stool: Enterococcus monodomination, imipenem+cilastatin with or without SYN-006; assay type: in vivo, mice; details: FIG. 8; for largest bars (genus) in 16S analysis, post-antibiotic: post-abx; for Enterococcus monodominance in stool: vs imipenem+cilastatin only
Method: (§2) Next, experiments were conducted to assess the effect of SYN-006 (P2A) administration on modulating and/or reducing Enterococcus monodomination, and specifically, overgrowth of Enterococcus faecium, in imipenem-treated mice.
(§3) Mice received a subcutaneous administration of 100 mg/kg imipenem+cilastatin for two days, with stool samples collected on the third day. […] Stool samples were collected on day 3 and 16S sequencing analysis was performed.

[6] = tested on: Firmicutes bacterial phylum; details: stool day 3, FIG. 7
Method: Experiments were conducted to determine whether a liquid formulation of SYN-006 (e.g., a beta-lactamase in a phosphate-buffered saline solution) could be delivered to the small and large intestine of mice via oral gavage.
Mice received a subcutaneous administration of 100 mg/kg imipenem+cilastatin for two days, with stool samples collected on the third day.
On day 3, mouse stool was collected.

129S1 mice [7] = assay: Survival study of antibiotic-exacerbated GVHD after bone marrow transplantation (P2A); assay type: in vivo; details: BM+T cells; imipenem+cilastatin 100 mg/kg s.c. + P2A 50 mg/kg oral gavage three times per week days 10-25; endpoint 40 days post-BMT; p=0.0096, Mantel-Cox test; FIG. 10
Method: This experiment was conducted to assess the effect of SYN-006 (P2A) administration on protecting and/or reducing GVHD severity associated with bone marrow transplantation.
129S1 mice were lethally irradiated and then transplanted with bone marrow cells (B6 donor bone marrow) at 5M and defined doses of splenic T lymphocytes from C57BL/6 mice at 2M. Both of these mice share the MHC-type H2^b and thus represent a clinically relevant MHC-matched transplantation model.

Enterococcus faecium = assay: Relative abundance of Enterococcus faecium in stool of imipenem-treated mice; assay type: in vivo; details: imipenem+cilastatin 100 mg/kg s.c. alone or with P2A 1, 10, 50 mg/kg oral gavage; FIG. 9
Method: as §2, §3

[8] = piperacillin/tazobactam alone, 125 mg/kg s.c. twice per day for two days
[9] = piperacillin/tazobactam 125 mg/kg s.c. + P3A 10 mg/kg oral gavage, twice per day for two days

Molecule: piperacillin/tazobactam [reference compound]
- largest bars (genus) in 16S analysis (Enterococcus [1]; FIG. 5, Zosyn alone): Enterococcus
- largest bars (genus) in 16S analysis (Enterococcus [1]; FIG. 6, BM (bone marrow) group, ZO alone): Enterococcus
- largest bars (genus) in 16S analysis (Enterococcus [1]; FIG. 6, BM+T cells group, ZO alone): Enterococcus
- abundance of Firmicutes in mouse stool [2, 8]: reduced
- total bacterial copies present in mouse stool (total bacteria; [8]): decreased

Molecule: SYN-004: beta-lactamase with the amino acid sequence of SEQ ID NO: 1; D276N relative to P1A
- largest bars (genus) in 16S analysis (Enterococcus [1]; FIG. 5, Zosyn+SYN-004): Clostridium
- largest bars (genus) in 16S analysis (Enterococcus [1]; FIG. 6, BM (bone marrow) group, ZO+Blact): Enterococcus in the first two bars from the left and Clostridium in the next two bars from the left
- largest bars (genus) in 16S analysis (Enterococcus [1]; FIG. 6, BM+T cells group, ZO+Blact): Clostridium
- Enterococcus monodominance in stool (Enterococcus [1]; piperacillin/tazobactam + SYN-004 vs piperacillin/tazobactam only, day 21 post-transplantation, FIG. 5 and 6): reduced Enterococcus monodominance
- amount of piperacillin in mouse stool [3]: reduced
- fold abundance of Firmicutes in mouse stool [2, 9]: recovered and protected
- survival (mortality), antibiotic-exacerbated GVHD (129S1 mice [4]): reduced antibiotic-exacerbated GVHD
- total bacterial copies present in mouse stool (total bacteria; [9]): decrease was reduced

Molecule: imipenem+cilastatin [reference compound]
- largest bars (genus) in 16S analysis, post-antibiotic (Enterococcus [5]; imipenem group (no P2A)): Enterococcus

B1: SYN-006: beta-lactamase polypeptide with the sequence of SEQ ID NO: 6 (protein)
chain: ETGTISISQLNKNVWVHTELGYFNGEAVPSNGLVLNTSKGLVLVDSSWDNKLTKELIEMVEKKFQKRVTDVIITHAHADRIGGITALKERGIKAHSTALTAELAKNSGYEEPLGDLQTITSLKFGNTKVETFYPGKGHTEDNIVVWLPQYQILAGGCLVKSAEAKDLGNVADAYVNEWSTSIENVLKRYGNINSVVPGHGEVGDKGLLLHTLDLLK
modifications: Synthetic polymer.
- largest bars (genus) in 16S analysis, post-antibiotic (Enterococcus [5]; imipenem+P2A (1 mg) group): Enterococcus
- largest bars (genus) in 16S analysis, post-antibiotic (Enterococcus [5]; imipenem+P2A (10 mg) group): Clostridium
- largest bars (genus) in 16S analysis, post-antibiotic (Enterococcus [5]; imipenem+P2A (50 mg) group): Lactobacillus and Clostridium
- Enterococcus monodominance in stool (Enterococcus [5]; imipenem+cilastatin 100 mg/kg s.c. + SYN-006 10 mg/kg oral gavage twice per day for two days): reduced Enterococcus monodominance
- Enterococcus monodominance in stool (Enterococcus [5]; imipenem+cilastatin 100 mg/kg s.c. + SYN-006 50 mg/kg oral gavage twice per day for two days): reduced Enterococcus monodominance
- fold abundance of Firmicutes in mouse stool ([6]; imipenem+cilastatin 100 mg/kg s.c. for two days + P2A 10 mg/kg oral gavage twice per day): recovered and protected
- fold abundance of Firmicutes in mouse stool ([6]; imipenem+cilastatin 100 mg/kg s.c. for two days + P2A 50 mg/kg oral gavage twice per day): recovered and protected
- survival (mortality), antibiotic-exacerbated GVHD (129S1 mice [7]): reduced antibiotic-exacerbated GVHD
- overgrowth (relative abundance) of Enterococcus faecium in mouse stool (Enterococcus faecium): prevents overgrowth of Enterococcus faecium
